Measurements published in ChEMBL document CHEMBL3046404, “The cytotoxic effects of diketopiperaizes against Leishmania donovani promastigotes and amastigotes” (Med Chem Res, 2013).
In brackets after ≈: the same amount, converted by molar mass.

Key:
[1] = Toxicity against BALB/c Mus musculus (mouse) peritoneal macrophages assessed as concentration required for cell lysis after 48 hr; format: cell-based, Peritoneal macrophage cell; conditions: read-out: Activity
Leishmania donovani [2] = assay: Antileishmanial activity against promastigote form of Leishmania donovani MHOH/IN/1983/AG83 after 2 hr by MTT assay; format: functional, organism-based
Leishmania donovani [3] = assay: microbe, parasite or virus in culture; conditions: MHOH/IN/1983/AG83, 48 h
Description: Antileishmanial activity against amastigote form of Leishmania donovani MHOH/IN/1983/AG83 infected BALB/c mouse peritoneal macrophages after 48 hr by Geimsa staining method

Leishmania donovani [4] = assay: Antileishmanial activity against promastigote form of Leishmania donovani MHOH/IN/1983/AG83 infected in BALB/c mouse assessed as reduction in parasite burden in spleen at 10 mg/kg, i.p. administered 1 month post-infection 2 times per week for 30 days relative to control; format: functional; design: scale not given: the % may be the effect or the level left; conditions: route intraperitoneal
Mus musculus [5] = assay: Toxicity against BALB/c Mus musculus (mouse) assessed as blood urea level at 10 mg/kg, ip administered 2 times per week for 30 days (reference value: 29 +/- 6 mg/dl); format: organism-based; design: dose 10 mg/kg, route intraperitoneal; conditions: in vivo, 720 h
Mus musculus [6] = assay: Toxicity against BALB/c Mus musculus (mouse) assessed as SGOT level at 4 mg/kg, ip administered 2 times per week for 30 days (reference value: 71 +/- 4 IU/l); format: organism-based; design: dose 4 mg/kg, route intraperitoneal; conditions: in vivo, 720 h
Leishmania donovani [7] = assay: Antileishmanial activity against promastigote form of Leishmania donovani MHOH/IN/1983/AG83 infected BALB/c mouse assessed as spleen weight at 10 mg/kg, ip administered 1 month post-infection 2 times per week for 30 days (reference value: 509 +/- 25 mg); format: functional; conditions: route intraperitoneal
Leishmania donovani [8] = assay: Antileishmanial activity against amastigote form of Leishmania donovani MHOH/IN/1983/AG83 infected BALB/c mouse peritoneal macrophages at 10 ug/ml after 48 hr by Geimsa staining method relative to control; format: functional
Mus musculus [9] = assay: Toxicity against BALB/c Mus musculus (mouse) assessed as SGPT level at 4 mg/kg, ip administered 2 times per week for 30 days (reference value: 28 +/- 5 IU/l); format: organism-based; design: dose 4 mg/kg, route intraperitoneal; conditions: in vivo, 720 h
Mus musculus [10] = assay: Toxicity against BALB/c Mus musculus (mouse) assessed as SGPT level at 10 mg/kg, ip administered 2 times per week for 30 days (reference value: 28 +/- 5 IU/l); format: organism-based; design: dose 10 mg/kg, route intraperitoneal; conditions: in vivo, 720 h
Leishmania donovani [11] = assay: Antileishmanial activity against promastigote form of Leishmania donovani MHOH/IN/1983/AG83 infected BALB/c mouse assessed as liver weight at 4 mg/kg, ip administered 1 month post-infection 2 times per week for 30 days (reference value: 1,746 +/- 56 mg); format: functional; conditions: route intraperitoneal
Leishmania donovani [12] = assay: Antileishmanial activity against promastigote form of Leishmania donovani MHOH/IN/1983/AG83 infected in BALB/c mouse assessed as reduction in parasite burden in spleen at 4.5 mg/kg, i.p. administered 1 month post-infection 2 times per week for 30 days relative to control; format: functional; design: scale not given: the % may be the effect or the level left; conditions: route intraperitoneal
Leishmania donovani [13] = assay: Antileishmanial activity against promastigote form of Leishmania donovani MHOH/IN/1983/AG83 infected BALB/c mouse assessed as spleen weight at 4 mg/kg, ip administered 1 month post-infection 2 times per week for 30 days (reference value: 509 +/- 25 mg); format: functional; conditions: route intraperitoneal
Leishmania donovani [14] = assay: Antileishmanial activity against promastigote form of Leishmania donovani MHOH/IN/1983/AG83 infected BALB/c mouse assessed as reduction in parasite burden in liver at 4.5 mg/kg, ip administered 1 month post-infection 2 times per week for 30 days relative to control; format: functional; design: scale not given: the % may be the effect or the level left; conditions: route intraperitoneal
Mus musculus [15] = assay: Toxicity against BALB/c Mus musculus (mouse) assessed as blood urea level at 4 mg/kg, ip administered 2 times per week for 30 days (reference value: 29 +/- 6 mg/dl); format: organism-based; design: dose 4 mg/kg, route intraperitoneal; conditions: in vivo, 720 h
Leishmania donovani [16] = assay: Antileishmanial activity against promastigote form of Leishmania donovani MHOH/IN/1983/AG83 infected in BALB/c mouse assessed as reduction in parasite burden in liver at 10 mg/kg, ip administered 1 month post-infection 2 times per week for 30 days relative to control; format: functional; design: scale not given: the % may be the effect or the level left; conditions: route intraperitoneal
Mus musculus [17] = assay: Toxicity against BALB/c Mus musculus (mouse) assessed as SGOT level at 10 mg/kg, ip administered 2 times per week for 30 days (reference value: 71 +/- 4 IU/l); format: organism-based; design: dose 10 mg/kg, route intraperitoneal; conditions: in vivo, 720 h
Leishmania donovani [18] = assay: Antileishmanial activity against promastigote form of Leishmania donovani MHOH/IN/1983/AG83 infected BALB/c mouse assessed as liver weight at 10 mg/kg, ip administered 1 month post-infection 2 times per week for 30 days (reference value: 1,746 +/- 56 mg); format: functional; conditions: route intraperitoneal
Leishmania donovani [19] = assay: Antileishmanial activity against promastigote form of Leishmania donovani MHOH/IN/1983/AG83 infected BALB/c mouse assessed as reduction in parasite burden in spleen at 250 mg/kg, ip administered 1 month post-infection 2 times per week for 30 days relative to control; format: functional, organism-based; design: dose 250 mg/kg; scale not given: the % may be the effect or the level left
Leishmania donovani [20] = assay: Antileishmanial activity against promastigote form of Leishmania donovani MHOH/IN/1983/AG83 infected BALB/c mouse assessed as spleen weight at 250 mg/kg, ip administered 1 month post-infection 2 times per week for 30 days (reference value: 509 +/- 25 mg); format: functional, organism-based; design: dose 250 mg/kg
Leishmania donovani [21] = assay: Antileishmanial activity against promastigote form of Leishmania donovani MHOH/IN/1983/AG83 infected BALB/c mouse assessed as reduction in parasite burden in liver at 250 mg/kg, ip administered 1 month post-infection 2 times per week for 30 days relative to control; format: functional, organism-based; design: dose 250 mg/kg; scale not given: the % may be the effect or the level left
Leishmania donovani [22] = assay: Antileishmanial activity against promastigote form of Leishmania donovani MHOH/IN/1983/AG83 infected BALB/c mouse assessed as liver weight at 250 mg/kg, ip administered 1 month post-infection 2 times per week for 30 days (reference value: 1,746 +/- 56 mg); format: functional, organism-based; design: dose 250 mg/kg
[23] = Leishmania donovani, MHOH/IN/1983/AG83, 2 h, read-out: IC50

## N=C(N)c1ccc(OCCCCCOc2ccc(C(=N)N)cc2)cc1 [PENTAMIDINE]
[1]
  MCC at 48 h: > 90 µg/mL
Leishmania donovani [2]; [23]
  IC50: 2.1 µg/mL (≈ 6.17 µM)
Leishmania donovani [3]
  IC50: 2.8 µg/mL (≈ 8.22 µM)

## O=C1CN(c2ccc(Cl)cc2Cl)C(=O)CN1c1ccc(Cl)cc1Cl
[1]
  MCC at 48 h: > 35 µg/mL
Leishmania donovani [2]; [23]
  IC50: 2.9 µg/mL (≈ 7.18 µM)
Leishmania donovani [3]
  IC50: 6.4 µg/mL (≈ 15.8 µM)

## O=C1CN(c2cccc(Cl)c2)C(=O)CN1c1cccc(Cl)c1
Leishmania donovani [4]
  Activity: 91.35%
Mus musculus [5]
  Activity: 29 mg/dL
Mus musculus [6]
  Activity: 69 IU/L
Leishmania donovani [7]
  Activity: 87 mg
Leishmania donovani [8]
  Activity: 92.19%
Mus musculus [9]
  Activity: 29 IU/L
Mus musculus [10]
  Activity: 28 IU/L
Leishmania donovani [11]
  Activity: 1134 mg
Leishmania donovani [12]
  Activity: 67.97%
[1]
  MCC at 48 h: > 25 µg/mL
Leishmania donovani [13]
  Activity: 155 mg
Leishmania donovani [14]
  Activity: 69.73%
Mus musculus [15]
  Activity: 28 mg/dL
Leishmania donovani [2]; [23]
  IC50: 1 µg/mL (≈ 2.98 µM)
Leishmania donovani [3]
  IC50: 0.53 µg/mL (≈ 1.58 µM)
Leishmania donovani [16]
  Activity: 94.75%
Mus musculus [17]
  Activity: 67 IU/L

## O=C1CN(c2ccccc2)C(=O)CN1c1ccccc1
Leishmania donovani [18]
  Activity: 999 mg
Mus musculus [5]
  Activity: 32 mg/dL
Leishmania donovani [7]
  Activity: 166 mg
Mus musculus [10]
  Activity: 34 IU/L
[1]
  MCC at 48 h: > 30 µg/mL
Leishmania donovani [2]; [23]
  IC50: 1.4 µg/mL (≈ 5.26 µM)
Leishmania donovani [3]
  IC50: 1.6 µg/mL (≈ 6.01 µM)
Mus musculus [17]
  Activity: 74 IU/L

## O=C1CN(c2c(Cl)cc(Cl)cc2Cl)C(=O)CN1c1c(Cl)cc(Cl)cc1Cl
[1]
  MCC at 48 h: > 70 µg/mL
Leishmania donovani [2]; [23]
  IC50: 9.4 µg/mL (≈ 19.9 µM)
Leishmania donovani [3]
  IC50: > 10 µg/mL

## Cc1ccc(N2CC(=O)N(c3ccc(C)cc3)CC2=O)cc1
Leishmania donovani [18]
  Activity: 1127 mg
Mus musculus [5]
  Activity: 34 mg/dL
Leishmania donovani [7]
  Activity: 184 mg
Mus musculus [10]
  Activity: 33 IU/L
[1]
  MCC at 48 h: > 40 µg/mL
Leishmania donovani [2]; [23]
  IC50: 1.1 µg/mL (≈ 3.74 µM)
Leishmania donovani [3]
  IC50: 1.8 µg/mL (≈ 6.12 µM)
Mus musculus [17]
  Activity: 75 IU/L

## COc1ccc(Cl)cc1N1CC(=O)N(c2cc(Cl)ccc2OC)CC1=O
[1]
  MCC at 48 h: > 100 µg/mL
Leishmania donovani [2]
  IC50: Not Active

## O=C1CN(C2CCCCC2)C(=O)CN1C1CCCCC1
Leishmania donovani [4]
  Activity: 80.95%
Leishmania donovani [18]
  Activity: 1076 mg
Mus musculus [5]
  Activity: 31 mg/dL
Leishmania donovani [7]
  Activity: 139 mg
Leishmania donovani [8]
  Activity: 84.66%
Mus musculus [10]
  Activity: 30 IU/L
[1]
  MCC at 48 h: > 50 µg/mL
Leishmania donovani [2]; [23]
  IC50: 0.7 µg/mL (≈ 2.51 µM)
Leishmania donovani [3]
  IC50: 1.1 µg/mL (≈ 3.95 µM)
Leishmania donovani [16]
  Activity: 81.74%
Mus musculus [17]
  Activity: 73 IU/L

## O=C1CN(c2cccc(Cl)c2Cl)C(=O)CN1c1cccc(Cl)c1Cl
[1]
  MCC at 48 h: > 50 µg/mL
Leishmania donovani [2]; [23]
  IC50: 2.2 µg/mL (≈ 5.44 µM)
Leishmania donovani [3]
  IC50: 4.3 µg/mL (≈ 10.6 µM)

## C[C@@H]1[C@H](O)[C@@H](C)/C=C/C=C/C=C/C=C/C=C/C=C/C=C/[C@H](O[C@@H]2O[C@H](C)[C@@H](O)[C@H](N)[C@@H]2O)C[C@@H]2O[C@](O)(C[C@@H](O)C[C@@H](O)[C@H](O)CC[C@@H](O)C[C@@H](O)CC(=O)O[C@H]1C)C[C@H](O)[C@H]2C(=O)O [AMPHOTERICIN B]
[1]
  MCC at 48 h: > 4 µg/mL
Leishmania donovani [3]
  IC50: 0.1 µg/mL (≈ 0.108 µM)

## O=C1CN(c2ccccc2Cl)C(=O)CN1c1ccccc1Cl
Leishmania donovani [4]
  Activity: 71.81%
Leishmania donovani [18]
  Activity: 976 mg
Mus musculus [5]
  Activity: 30 mg/dL
Leishmania donovani [7]
  Activity: 106 mg
Leishmania donovani [8]
  Activity: 92%
Mus musculus [10]
  Activity: 28 IU/L
[1]
  MCC at 48 h: > 25 µg/mL
Leishmania donovani [2]; [23]
  IC50: 1.02 µg/mL (≈ 3.04 µM)
Leishmania donovani [3]
  IC50: 0.61 µg/mL (≈ 1.82 µM)
Leishmania donovani [16]
  Activity: 80.37%
Mus musculus [17]
  Activity: 72 IU/L

## O=C1CN(c2cc(Cl)ccc2Cl)C(=O)CN1c1cc(Cl)ccc1Cl
[1]
  MCC at 48 h: > 60 µg/mL
Leishmania donovani [2]; [23]
  IC50: 2.6 µg/mL (≈ 6.43 µM)
Leishmania donovani [3]
  IC50: 6.6 µg/mL (≈ 16.3 µM)

## COc1ccc(N2CC(=O)N(c3ccc(OC)cc3)CC2=O)cc1
[1]
  MCC at 48 h: > 60 µg/mL
Leishmania donovani [2]; [23]
  IC50: 21.8 µg/mL (≈ 66.8 µM)
Leishmania donovani [3]
  IC50: 2.2 µg/mL (≈ 6.74 µM)

## SODIUM ANTIMONY GLUCONATE
Leishmania donovani [19]
  Activity: 60.2%
Leishmania donovani [20]
  Activity: 303 mg
Leishmania donovani [21]
  Activity: 57.7%
Leishmania donovani [22]
  Activity: 1320 mg

## CC(=O)c1cccc(N2CC(=O)N(c3cccc(C(C)=O)c3)CC2=O)c1
[1]
  MCC at 48 h: > 50 µg/mL
Leishmania donovani [2]; [23]
  IC50: 3.4 µg/mL (≈ 9.7 µM)
Leishmania donovani [3]
  IC50: 2 µg/mL (≈ 5.71 µM)
